Results reported in US20230225988A1, “ANTIVIRAL USE OF CALIXARENES” (CEBINA GmbH, priority 2020, published 2023).
Where two headings read alike, the source gives them in different places.

Tests used:
HCoV 229E = conditions: Geller et al., Antiviral Research 2010; cited from earlier work
influenza H1N1 [1] = assay type: cell-based; conditions: CX-1 500 μM apical
influenza H1N1 [2] = assay type: cell-based; conditions: day 4 post infection, CX-1 500 μM versus buffer treated cells (FIG. 5)
[3] = test system: human nasal epithelial cells (MucilAir Pool); conditions: non-infected cells, LDH release from basal wash
SARS-CoV-2 [4] = test: Microscopic examination of the cytopathogenic effect in SARS-CoV-2 infected Vero E6 cells
SARS-CoV-2 [5] = test: PCR quantification of SARS-CoV-2 viral particles in supernatants of infected Vero E6 cells; conditions: for viral particle number, Sample #1 / viral particle number, Sample #2 / viral particle number, Sample #3: Vero E6, MOI 0.01; for viral particle number, average: average of triplicate
[6] = 24 h post-infection, versus buffer treated cells (FIG. 4 panel A)
[7] = 48 h post infection, versus buffer treated cells (FIG. 4 panel B)
[8] = CX-1 500 μM, 24 h post-infection, prophylactic setting
[9] = CX-1 500 μM, 48 h post-infection, prophylactic setting

Compound | activity against HCoV 229E (HCoV 229E) | decrease in viral genome copy (influenza H1N1 [1]; [6]) [log] | reduction in viral genome copy (influenza H1N1 [1]; [6]) [%] | decrease in viral genome copy (influenza H1N1 [1]; [7]) [log] | reduction in viral genome copy (influenza H1N1 [1]; [7]) [%] | cilia beating frequency (influenza H1N1 [2]) | cytotoxicity [3] | protection of infected cells from dying (cytopathogenic effect, microscopy) (SARS-CoV-2 [4]; prophylactic setting, 500, 100 or 20 μM, 48 h post infection (FIG. 1)) | protection of infected cells from dying (cytopathogenic effect, microscopy) (SARS-CoV-2 [4]; therapeutic setting, CX-1 added after 30 min infection, 48 h post infection (FIG. 2)) | reduction in viral genome copy number (SARS-CoV-2 [5]; 50 μM CX-1, preventive setting (FIG. 3)) [%] | viral particle number, Sample #1 (SARS-CoV-2 [5]; [8]) [viral particle number/μl] | viral particle number, Sample #2 (SARS-CoV-2 [5]; [8]) [viral particle number/μl] | viral particle number, Sample #3 (SARS-CoV-2 [5]; [8]) [viral particle number/μl] | viral particle number, average (SARS-CoV-2 [5]; [8]) [viral particle number/μl] | viral particle number, Sample #1 (SARS-CoV-2 [5]; [9]) [viral particle number/μl] | viral particle number, Sample #2 (SARS-CoV-2 [5]; [9]) [viral particle number/μl] | viral particle number, Sample #3 (SARS-CoV-2 [5]; [9]) [viral particle number/μl] | viral particle number, average (SARS-CoV-2 [5]; [9]) [viral particle number/μl] | potency (reduction in viral particles) (SARS-CoV-2 [5]; CX-1 500 μM, 48 h post-infection, prophylactic setting, versus virus only) [%] | reduction in viral genome copy number (SARS-CoV-2 [5]; lower dilutions of CX-1, preventive setting, versus infected non-treated control (FIG. 3))
1,3-bis(bithiazolyl)-tetra-para-sulfonato-calix[4]arene [C[4]S-BTZ] | very effective |  |  |  |  |  |  |  |  |  |  |  |  |  |  |  |  |  |  | 
O=S(=O)(O)c1cc2c(O)c(c1)Cc1cc(S(=O)(=O)O)cc(c1O)Cc1cc(S(=O)(=O)O)cc(c1O)Cc1cc(S(=O)(=O)O)cc(c1O)C2 [CX-1, 5,11,17,23-sulfonato-25,26,27,28-tetrahydroxycalix[4]arene] |  | −0.9 | 88 | ~0.8 | 80.5 | significantly higher | no cytotoxicity | significantly protected from dying | significantly protected from dying | 30 | 0.00 | 0.00 | 1.48 | 0.49 | 11.10 | 15.00 | 8.63 | 11.57 | 95 | over 90%
O=S(=O)(O)c1cc2c(O)c(c1)Cc1cc(S(=O)(=O)O)cc(c1O)Cc1cc(S(=O)(=O)O)cc(c1O)Cc1cc(S(=O)(=O)O)cc(c1O)C2 [C[4]S, tetra-para-sulfonato-calix[4]arene] | only very weak activity |  |  |  |  |  |  |  |  |  |  |  |  |  |  |  |  |  |  | 
